Laboratory results published in the supplement of paper PMC10307832.

Legend:
Assay in all cases: relative viability (nuclei count vs DMSO), 5 days (fraction); higher = more cells survive
[1] = tested on: A-427
Outline: (§1)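 Lung cancer cell lines in 1536-well plates were dosed by pin tool the day after seeding, either with one drug alone or with a fixed anchor-drug dose plus five library-drug doses (not always all listed) in √10 steps. After 5 days, cells were fixed and their nuclei stained in one step (final 0.05% Triton X-100, 1% formaldehyde, 1 ug/ml Hoechst), then counted on 4× images. Relative viability is the nuclei count in treated wells divided by that in vehicle wells. Values are medians of duplicate plates.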

[2] = tested on: NCI-H650
Outline: as §1

[3] = tested on: NCI-H2228
Outline: as §1

[4] = tested on: NCI-H1993
Outline: as §1

[5] = tested on: NCI-H1915
Outline: as §1

[6] = tested on: NCI-H1793
Outline: as §1

[7] = tested on: NCI-H520
Outline: as §1

[8] = tested on: NCI-H1666
Outline: as §1

[9] = tested on: NCI-H838
Outline: as §1

[10] = tested on: EKVX
Outline: as §1

[11] = tested on: NCI-H23
Outline: as §1

[12] = tested on: LOU-NH91
Outline: as §1

[13] = tested on: NCI-H460
Outline: as §1

[14] = tested on: RERF-LC-KJ
Outline: as §1

[15] = tested on: SW 1573
Outline: as §1

[16] = tested on: LC-2-ad
Outline: as §1

[17] = tested on: LU99A
Outline: as §1

[18] = tested on: LCLC-97TM1
Outline: as §1

[19] = tested on: NCI-H1650
Outline: as §1

[20] = tested on: NCI-H1355
Outline: as §1

[21] = tested on: PC-3 [JPC-3]
Outline: as §1

[22] = tested on: IA-LM
Outline: as §1

[23] = tested on: NCI-H2347
Outline: as §1

[24] = tested on: BEN
Outline: as §1

Structure (SMILES): CCCCCCCCCCCC1=C(O)C(=O)C=C(O)C1=O [Embelin] + CS(=O)(=O)CCNCc1ccc(-c2ccc3ncnc(Nc4ccc(OCc5cccc(F)c5)c(Cl)c4)c3c2)o1 [Lapatinib] (partner 2 µM)
- relative viability ([1]; first compound 0.08 µM): 1.07
- relative viability ([1]; first compound 0.8 µM): 1.05
- relative viability ([1]; first compound 2.53 µM): 1.2
- relative viability ([1]; first compound 8 µM): 0.947
- relative viability ([2]; first compound 0.08 µM): 0.677
- relative viability ([2]; first compound 0.8 µM): 1.47
- relative viability ([2]; first compound 2.53 µM): 0.831
- relative viability ([2]; first compound 8 µM): 0.658
- relative viability ([3]; first compound 0.08 µM): 1.36
- relative viability ([3]; first compound 0.8 µM): 1.1
- relative viability ([3]; first compound 2.53 µM): 1.41
- relative viability ([3]; first compound 8 µM): 1.08
- relative viability ([4]; first compound 0.08 µM): 0.845
- relative viability ([4]; first compound 0.8 µM): 0.777
- relative viability ([4]; first compound 2.53 µM): 0.803
- relative viability ([4]; first compound 8 µM): 0.834
- relative viability ([5]; first compound 0.08 µM): 0.96
- relative viability ([5]; first compound 0.8 µM): 0.984
- relative viability ([5]; first compound 2.53 µM): 1.08
- relative viability ([5]; first compound 8 µM): 0.956
- relative viability ([6]; first compound 0.08 µM): 0.68
- relative viability ([6]; first compound 0.8 µM): 0.833
- relative viability ([6]; first compound 2.53 µM): 0.801
- relative viability ([6]; first compound 8 µM): 0.686
- relative viability ([7]; first compound 0.08 µM): 0.946
- relative viability ([7]; first compound 0.8 µM): 0.729
- relative viability ([7]; first compound 2.53 µM): 0.936
- relative viability ([7]; first compound 8 µM): 0.862
- relative viability ([8]; first compound 0.08 µM): 0.603
- relative viability ([8]; first compound 0.8 µM): 0.795
- relative viability ([8]; first compound 2.53 µM): 0.761
- relative viability ([8]; first compound 8 µM): 0.616
- relative viability ([9]; first compound 0.08 µM): 1.07
- relative viability ([9]; first compound 0.8 µM): 1.31
- relative viability ([9]; first compound 2.53 µM): 1.02
- relative viability ([9]; first compound 8 µM): 1.14
- relative viability ([10]; first compound 0.08 µM): 0.197
- relative viability ([10]; first compound 0.8 µM): 0.528
- relative viability ([10]; first compound 2.53 µM): 0.215
- relative viability ([10]; first compound 8 µM): 0.211
- relative viability ([11]; first compound 0.08 µM): 1.17
- relative viability ([11]; first compound 0.8 µM): 1.2
- relative viability ([11]; first compound 2.53 µM): 1.36
- relative viability ([11]; first compound 8 µM): 1.07
- relative viability ([12]; first compound 0.08 µM): 0.823
- relative viability ([12]; first compound 0.8 µM): 0.99
- relative viability ([12]; first compound 2.53 µM): 0.866
- relative viability ([12]; first compound 8 µM): 0.63
- relative viability ([13]; first compound 0.08 µM): 1.04
- relative viability ([13]; first compound 0.8 µM): 1.1
- relative viability ([13]; first compound 8 µM): 1.1
- relative viability ([14]; first compound 0.08 µM): 0.81
- relative viability ([14]; first compound 0.8 µM): 0.935
- relative viability ([14]; first compound 2.53 µM): 0.991
- relative viability ([14]; first compound 8 µM): 0.84
- relative viability ([15]; first compound 0.08 µM): 1.04
- relative viability ([15]; first compound 0.8 µM): 1.03
- relative viability ([15]; first compound 2.53 µM): 1.33
- relative viability ([15]; first compound 8 µM): 1.09
- relative viability ([16]; first compound 0.08 µM): 0.96
- relative viability ([16]; first compound 0.8 µM): 1.16
- relative viability ([16]; first compound 2.53 µM): 1.07
- relative viability ([16]; first compound 8 µM): 0.983
- relative viability ([17]; first compound 0.08 µM): 0.999
- relative viability ([17]; first compound 0.8 µM): 0.991
- relative viability ([17]; first compound 2.53 µM): 1.12
- relative viability ([17]; first compound 8 µM): 0.855
- relative viability ([18]; first compound 0.8 µM): 1.48
- relative viability ([18]; first compound 2.53 µM): 0.823
- relative viability ([18]; first compound 8 µM): 0.86
- relative viability ([19]; first compound 0.08 µM): 0.762
- relative viability ([19]; first compound 0.8 µM): 0.931
- relative viability ([19]; first compound 2.53 µM): 0.74
- relative viability ([19]; first compound 8 µM): 0.712
- relative viability ([20]; first compound 0.08 µM): 0.878
- relative viability ([20]; first compound 0.8 µM): 1.15
- relative viability ([20]; first compound 2.53 µM): 1.07
- relative viability ([20]; first compound 8 µM): 0.686
- relative viability ([21]; first compound 0.08 µM): 0.428
- relative viability ([21]; first compound 0.8 µM): 0.473
- relative viability ([21]; first compound 2.53 µM): 0.477
- relative viability ([21]; first compound 8 µM): 0.406
- relative viability ([22]; first compound 0.08 µM): 0.769
- relative viability ([22]; first compound 0.8 µM): 0.894
- relative viability ([22]; first compound 2.53 µM): 0.789
- relative viability ([22]; first compound 8 µM): 0.645
- relative viability ([23]; first compound 0.08 µM): 1.02
- relative viability ([23]; first compound 0.8 µM): 0.929
- relative viability ([23]; first compound 2.53 µM): 0.968
- relative viability ([23]; first compound 8 µM): 0.969
- relative viability ([24]; first compound 0.08 µM): 0.697
- relative viability ([24]; first compound 0.8 µM): 0.887
- relative viability ([24]; first compound 2.53 µM): 0.805
- relative viability ([24]; first compound 8 µM): 0.73
